Source: article PMC3303154 (2011)

Target: 20S proteasome (chymotrypsin-like activity) (Homo sapiens, UniProt P28074)
Assay: fluorogenic Suc-LLVY-AMC peptidase assay with purified […] proteasome
Format: biochemical

Chain of 20S proteasome (chymotrypsin-like activity) (P28074 60-263): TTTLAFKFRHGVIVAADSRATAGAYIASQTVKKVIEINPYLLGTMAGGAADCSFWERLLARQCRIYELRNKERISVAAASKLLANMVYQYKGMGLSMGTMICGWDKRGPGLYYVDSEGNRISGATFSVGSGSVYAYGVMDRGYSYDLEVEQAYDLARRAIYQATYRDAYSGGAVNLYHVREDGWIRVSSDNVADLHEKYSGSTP

## CC(C)=CC[C@]12Oc3cc(O)c([C@H]4C=C(C)C[C@H](c5ccc(O)cc5O)[C@H]4C(=O)c4ccc(O)cc4O)c(O)c3C(=O)[C@@]1(O)Oc1cc(O)ccc12 [Sanggenon C]
  IC50: 4 µM
